# Molecular target: T1, human PAH with the R408W mutation (Homo sapiens, UniProt P00439, R408W)
# T1 construct: expressed in transfected cells
# T1 sequence (P00439 1-452 R408W): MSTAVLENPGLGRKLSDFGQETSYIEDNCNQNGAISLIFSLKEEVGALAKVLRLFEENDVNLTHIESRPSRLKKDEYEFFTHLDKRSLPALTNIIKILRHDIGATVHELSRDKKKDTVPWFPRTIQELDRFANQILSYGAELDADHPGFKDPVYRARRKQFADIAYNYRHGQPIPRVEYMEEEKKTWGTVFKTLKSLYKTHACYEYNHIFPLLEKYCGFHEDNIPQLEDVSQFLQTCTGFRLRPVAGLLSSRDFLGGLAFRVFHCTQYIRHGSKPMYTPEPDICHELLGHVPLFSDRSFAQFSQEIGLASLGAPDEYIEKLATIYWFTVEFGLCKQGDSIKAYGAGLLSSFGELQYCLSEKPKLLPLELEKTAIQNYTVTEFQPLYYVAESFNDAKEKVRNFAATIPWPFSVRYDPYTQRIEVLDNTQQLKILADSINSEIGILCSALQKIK
# Experiment: Cell Based Phenylalanine Flux Assay;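 note: after compound treatment, cells received sepiapterin plus isotope-labelled Phenylalanine for 4 hours, then labelled Tyrosine in the medium was quantified, 10-point 2-fold dilution series run in duplicate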
# Details: A375 cells expressing human PAH R408W; 24 hrs compound incubation; 13C-Tyrosine by LC-MS; average where tested multiple times; read-out: AC50
row,SMILES,AC50
1,"COc1ccc2c(C(=O)N3CCc4[nH]cnc4[C@@H]3c3cc4cccc(Cl)n4n3)cnn2c1 [Example 2465, (R)-(4-(7-chloropyrazolo[1,5-a]pyridin-2-yl)-6,7-dihydro-1H-imidazo[4,5-c]pyridin-5(4H)-yl)(6-methoxypyrazolo[1,5-a]pyridin-3-yl)methanone]",> 5 µM
2,"Cc1nnc(N2CCc3[nH]cnc3[C@H]2c2cc3c(C(F)F)cccn3n2)o1 [Example 2467, (S)-2-(4-(4-(difluoromethyl)pyrazolo[1,5-a]pyridin-2-yl)-6,7-dihydro-1H-imidazo[4,5-c]pyridin-5(4H)-yl)-5-methyl-1,3,4-oxadiazole]",1 to 5 µM
3,"O=C(c1nnc(-c2ncccn2)o1)N1CCc2[nH]cnc2[C@H]1c1cc2c(OC(F)(F)F)cccn2n1 [Example 2469, (S)-(5-(pyrimidin-2-yl)-1,3,4-oxadiazol-2-yl)(4-(4-(trifluoromethoxy)pyrazolo[1,5-a]pyridin-2-yl)-6,7-dihydro-1H-imidazo[4,5-c]pyridin-5(4H)-yl)methanone]",1 to 5 µM
4,"COc1cccn2nc([C@@H]3c4nc[nH]c4CCN3C(=O)c3cnn4cc(C)ccc34)cc12 [Example 2470, (S)-(4-(4-methoxypyrazolo[1,5-a]pyridin-2-yl)-6,7-dihydro-1H-imidazo[4,5-c]pyridin-5(4H)-yl)(6-methylpyrazolo[1,5-a]pyridin-3-yl)methanone]",1 to 5 µM
5,"COc1cccn2nc([C@H]3c4nc[nH]c4CCN3C(=O)c3cnn4cc(C)ccc34)cc12 [Example 2471, (R)-(4-(4-methoxypyrazolo[1,5-a]pyridin-2-yl)-6,7-dihydro-1H-imidazo[4,5-c]pyridin-5(4H)-yl)(6-methylpyrazolo[1,5-a]pyridin-3-yl)methanone]",> 5 µM
6,"CN(C)c1ccc2c(C(=O)N3CCc4[nH]cnc4[C@H]3c3cc4cccc(C(F)(F)F)n4n3)cnn2c1 [Example 2472, (S)-(6-(dimethylamino)pyrazolo[1,5-a]pyridin-3-yl)(4-(7-(trifluoromethyl)pyrazolo[1,5-a]pyridin-2-yl)-6,7-dihydro-1H-imidazo[4,5-c]pyridin-5(4H)-yl)methanone]",1 to 5 µM
7,"CN(C)c1ccc2c(C(=O)N3CCc4[nH]cnc4[C@H]3c3cc4cccc(Cl)n4n3)cnn2c1 [Example 2474, (S)-(4-(7-chloropyrazolo[1,5-a]pyridin-2-yl)-6,7-dihydro-1H-imidazo[4,5-c]pyridin-5(4H)-yl)(6-(dimethylamino)pyrazolo[1,5-a]pyridin-3-yl)methanone]",1 to 5 µM
8,"CN(C)CCc1ccc2c(C(=O)N3CCc4[nH]cnc4[C@H]3c3cc4c(C(F)(F)F)cccn4n3)cnn2c1 [Example 2476, (S)-(6-(2-(dimethylamino)ethyl)pyrazolo[1,5-a]pyridin-3-yl)(4-(4-(trifluoromethyl)pyrazolo[1,5-a]pyridin-2-yl)-6,7-dihydro-1H-imidazo[4,5-c]pyridin-5(4H)-yl)methanone]",1 to 5 µM
9,"COCCc1ccc2c(C(=O)N3CCc4[nH]cnc4[C@H]3c3cc4c(C)cccn4n3)cnn2c1 [Example 2478, (S)-(6-(2-methoxyethyl)pyrazolo[1,5-a]pyridin-3-yl)(4-(4-methylpyrazolo[1,5-a]pyridin-2-yl)-6,7-dihydro-1H-imidazo[4,5-c]pyridin-5(4H)-yl)methanone]",1 to 5 µM
10,"Cc1cccn2nc([C@H]3c4nc[nH]c4CCN3c3nnc(C4CCC4)o3)cc12 [Example 2480, (R)-2-cyclobutyl-5-(4-(4-methylpyrazolo[1,5-a]pyridin-2-yl)-6,7-dihydro-1H-imidazo[4,5-c]pyridin-5(4H)-yl)-1,3,4-oxadiazole]",> 5 µM
11,"Cc1cccn2nc([C@@H]3c4nc[nH]c4CCN3c3nnc(C4CCC4)o3)cc12 [Example 2481, (S)-2-cyclobutyl-5-(4-(4-methylpyrazolo[1,5-a]pyridin-2-yl)-6,7-dihydro-1H-imidazo[4,5-c]pyridin-5(4H)-yl)-1,3,4-oxadiazole]",1 to 5 µM
12,"FC(F)(F)c1cccn2nc([C@@H]3c4nc[nH]c4CCN3c3nnc(C4CCC4)o3)cc12 [Example 2482, (S)-2-cyclobutyl-5-(4-(4-(trifluoromethyl)pyrazolo[1,5-a]pyridin-2-yl)-6,7-dihydro-1H-imidazo[4,5-c]pyridin-5(4H)-yl)-1,3,4-oxadiazole]",1 to 5 µM
13,"FC(F)c1cccn2nc([C@@H]3c4nc[nH]c4CCN3c3nnc(C4CCC4)o3)cc12 [Example 2485, (S)-2-cyclobutyl-5-(4-(4-(difluoromethyl)pyrazolo[1,5-a]pyridin-2-yl)-6,7-dihydro-1H-imidazo[4,5-c]pyridin-5(4H)-yl)-1,3,4-oxadiazole]",1 to 5 µM
14,"FC(F)c1cccc2cc([C@@H]3c4nc[nH]c4CCN3c3nnc(C(F)(F)F)o3)nn12 [Example 2487, (S)-2-(4-(7-(difluoromethyl)pyrazolo[1,5-a]pyridin-2-yl)-6,7-dihydro-1H-imidazo[4,5-c]pyridin-5(4H)-yl)-5-(trifluoromethyl)-1,3,4-oxadiazole]",1 to 5 µM
15,"Cn1cc(-c2nnc(C(=O)N3CCc4[nH]cnc4[C@H]3c3cc4ccc(Br)cn4n3)o2)cn1 [Example 2488, (S)-(4-(6-bromopyrazolo[1,5-a]pyridin-2-yl)-1,4,6,7-tetrahydro-5H-imidazo[4,5-c]pyridin-5-yl)(5-(1-methyl-1H-pyrazol-4-yl)-1,3,4-oxadiazol-2-yl)methanone]",1 to 5 µM
16,"FC(F)(F)c1nnc(N2CCc3[nH]cnc3[C@H]2c2cc3cccc(C(F)(F)F)n3n2)o1 [Example 2491, (S)-2-(trifluoromethyl)-5-(4-(7-(trifluoromethyl)pyrazolo[1,5-a]pyridin-2-yl)-1,4,6,7-tetrahydro-5H-imidazo[4,5-c]pyridin-5-yl)-1,3,4-oxadiazole]",1 to 5 µM
17,"FC(F)(F)c1nnc(N2CCc3[nH]cnc3[C@H]2c2cc3cccc(Cl)n3n2)o1 [Example 2493, (S)-2-(4-(7-chloropyrazolo[1,5-a]pyridin-2-yl)-1,4,6,7-tetrahydro-5H-imidazo[4,5-c]pyridin-5-yl)-5-(trifluoromethyl)-1,3,4-oxadiazole]",1 to 5 µM
18,"O=C(c1cnc(C2CC2)o1)N1CCc2[nH]cnc2[C@H]1c1cc2ccccn2n1 [Example 2496, (S)-(2-cyclopropyloxazol-5-yl)(4-(pyrazolo[1,5-a]pyridin-2-yl)-1,4,6,7-tetrahydro-5H-imidazo[4,5-c]pyridin-5-yl)methanone]",1 to 5 µM
19,"Cc1cccn2nc([C@@H]3c4nc[nH]c4CCN3C(=O)c3cnc(-c4ccn(C)n4)o3)cc12 [Example 2499, (S)-(2-(1-methyl-1H-pyrazol-3-yl)oxazol-5-yl)(4-(4-methylpyrazolo[1,5-a]pyridin-2-yl)-1,4,6,7-tetrahydro-5H-imidazo[4,5-c]pyridin-5-yl)methanone]",1 to 5 µM
20,"Cc1nnc(C(=O)N2CCc3[nH]cnc3[C@H]2c2cc3c(C)cccn3n2)s1 [Example 2501, (S)-(5-methyl-1,3,4-thiadiazol-2-yl)(4-(4-methylpyrazolo[1,5-a]pyridin-2-yl)-1,4,6,7-tetrahydro-5H-imidazo[4,5-c]pyridin-5-yl)methanone]",1 to 5 µM
21,"Cc1cccn2nc([C@@H]3c4nc[nH]c4CCN3C(=O)c3nc4ccccc4s3)cc12 [Example 2502, (S)-benzo[d]thiazol-2-yl(4-(4-methylpyrazolo[1,5-a]pyridin-2-yl)-1,4,6,7-tetrahydro-5H-imidazo[4,5-c]pyridin-5-yl)methanone]",1 to 5 µM
22,"Cc1cccn2nc([C@H]3c4nc[nH]c4CCN3C(=O)c3nc4ccccc4s3)cc12 [Example 2503, (R)-benzo[d]thiazol-2-yl(4-(4-methylpyrazolo[1,5-a]pyridin-2-yl)-1,4,6,7-tetrahydro-5H-imidazo[4,5-c]pyridin-5-yl)methanone]",> 5 µM
23,"Cn1ccc(-c2ncc(C(=O)N3CCc4[nH]cnc4[C@@H]3c3cc4c(F)cccn4n3)o2)n1 [Example 2504, (R)-(4-(4-fluoropyrazolo[1,5-a]pyridin-2-yl)-1,4,6,7-tetrahydro-5H-imidazo[4,5-c]pyridin-5-yl)(2-(1-methyl-1H-pyrazol-3-yl)oxazol-5-yl)methanone]",> 5 µM
24,"Cn1ccc(-c2ncc(C(=O)N3CCc4[nH]cnc4[C@H]3c3cc4c(F)cccn4n3)o2)n1 [Example 2505, (S)-(4-(4-fluoropyrazolo[1,5-a]pyridin-2-yl)-1,4,6,7-tetrahydro-5H-imidazo[4,5-c]pyridin-5-yl)(2-(1-methyl-1H-pyrazol-3-yl)oxazol-5-yl)methanone]",1 to 5 µM
25,"Cn1cc(-c2ncc(C(=O)N3CCc4[nH]cnc4[C@H]3c3cc4c(C(F)(F)F)cccn4n3)o2)cn1 [Example 2506, (S)-(2-(1-methyl-1H-pyrazol-4-yl)oxazol-5-yl)(4-(4-(trifluoromethyl)pyrazolo[1,5-a]pyridin-2-yl)-1,4,6,7-tetrahydro-5H-imidazo[4,5-c]pyridin-5-yl)methanone]",1 to 5 µM
26,"FC(F)Oc1cccn2nc([C@@H]3c4nc[nH]c4CCN3c3nnc(C4CC4)o3)cc12 [Example 2509, (S)-2-cyclopropyl-5-(4-(4-(difluoromethoxy)pyrazolo[1,5-a]pyridin-2-yl)-1,4,6,7-tetrahydro-5H-imidazo[4,5-c]pyridin-5-yl)-1,3,4-oxadiazole]",1 to 5 µM
27,"FC(F)(F)c1cccn2nc([C@@H]3c4nc[nH]c4CCN3c3nnc(-c4cnccn4)o3)cc12 [Example 2510, (S)-2-(pyrazin-2-yl)-5-(4-(4-(trifluoromethyl)pyrazolo[1,5-a]pyridin-2-yl)-1,4,6,7-tetrahydro-5H-imidazo[4,5-c]pyridin-5-yl)-1,3,4-oxadiazole]",1 to 5 µM

# Source: patent US20230365592A1 (Agios Pharmaceuticals, Inc., priority 2022, published 2023)
